# In patent publication US7871765B2, “Composition having antitumor effect” (priority 2004, dated 2011):
# Legend:
# MB49 cells [1] = test: MB49 cell-inoculated mouse model (intradermal), tumor volume; format: in vivo
# Excerpt: This experimental model can be prepared in accordance with, for example, a method described in Anticancer Res., 2004, 24(4):2225-30, and the like.
# [2] = test system: MB49 (transitional epithelial cancer) cells; test: Adriamycin sensitivity of MB49 cells, WST-8 assay; format: cell-based; conditions: 48 hours
# Protocol: After 48 hours of cultivation, the supernatant was removed by WST-8 assay, 100 μl of a cell counting kit solution, previously diluted 10 fold with RPMI medium, was added, and the plate was allowed to stand at 37° C. for 1.5 hours. Absorbance at 450 nm was determined using a microplate reader. Assuming the absorbance of a sample of MB49 cells only to be 100% survival rate, the survival rates at various concentrations were calculated.
# MB49 cells [3] = test: Concurrent administration of MB49 cells, HVJ-E and ADM into the bladder; format: in vivo, mouse; conditions: two weeks
# Protocol: Three 6-week-old female C57BL/6Cr Slc mice per group were anesthetized by administering a mixture of 90 μl of ketamine (50 mg) and 10 μl of xylazine (2% solution) to the left femoral muscle, a 24G catheter was inserted into the bladder, 100 μl of each of the following sample solutions was administered using a 1-ml syringe, and the catheter was indwelled for 1 hour.
# The groups established are as follows:
# The number of MB49 cells administered was 5×10^6 cells. After adjustment to a final volume of 100 μl, each solution was administered into the bladder. Two weeks later, the bladder was extirpated, and sections were prepared and stained with HE.
# [4] = test system: CT-26 cells derived from mouse colon cancer; test: Antitumor effect on transplanted CT-26 tumors in cancer-bearing mice (tumor volume, remission); format: in vivo; conditions: Study 1, 21 days after treatment, single dose; for mean tumor volume: mean of five animals, BLM 6.5 μg/tumor intratumoral, CDDP 0.2 mg/body i.p.
# Protocol: CT-26 cells derived from mouse colon cancer (5×10^6 cells) were intradermally transplanted to the backs of 8-week-old male BALB/cAnNCrj mice to yield cancer-bearing mice. Five days after the transplantation, 0.2 mg/body Platocin Injection (cisplatin, CDDP) was intraperitoneally administered to animals wherein the tumor diameter (major diameter) had reached about 5 mm. Following this administration, HVJ-E containing or not containing an anticancer drug (bleomycin hydrochloride [BLM]: Nippon Kayaku Co., Ltd.) and the like were administered into the tumor in a single dose (on the day after administration of cisplatin) or in multiple doses (3 times: 1, 5, and 8 days after administration of cisplatin). Tumor diameters, survival curves, and immune reactions in the tumor tissue were evaluated.
# (Study 1) The groups described below were established, and the antitumor effects of treatment for transplanted tumors was evaluated.
# For modeling, (1) a control group, (2) an HVJ-E group, (3) a BLM-alone group, (4) an HVJ-E/BLM group, (5) a CDDP-alone group, and (6) a CDDP HVJ-E/BLM single dosing group were established; tumor volumes were measured 21 days after each treatment, and the influence on the antitumor effect was examined.
# (Study 2) In an attempt to further enhance the antitumor effect of the (single) treatment by single dosing of CDDP HVJ-E/BLM given in Study 1, HVJ-E/BLM was administered in multiple doses (3 times) (Study 2-1). […] (Study 2-1)
# Tumor volumes were examined 21 days after treatment for (1) a control group, (2) a CDDP HVJ-E/BLM single dosing group (single treatment), and (3) a CDDP HVJ-E/BLM 3 dosing group.
# After completion of the quarantine and habituation, animals were shaven with clippers. The tumor cell suspension at 100 μL/site (5×10^6 cells/body) was administered intradermally to the backs of 59 mice using a disposable syringe and injection needle (26 G). On the day following the administration, the same administration was performed on 57 animals (non-recipient animals).
# Tumor diameters (major diameter, minor diameter) were measured 5 days after transplantation (not measured after grouping). Five days later, animals having a tumor diameter (major diameter) of about 5 mm were grouped by stratified randomization to obtain a nearly uniform distribution of mean tumor diameters (major diameters).
# For the CDDP administration group, a single-dose intraperitoneal administration (1000 μl) was performed using a disposable injection syringe and injection needle. […]
# The day of administration was taken as Day 0 after administration. On Days 3, 6, 9, 12, 15, 18, and 21 after administration, all animals had their tumor diameters measured, and tumor volume (major diameter×minor diameter×minor diameter÷2) was calculated.
# CT-26 cells = test: CTL assay using radiolabeled chromium with splenocytes of treated mice; format: cell-based, mouse; conditions: E/T ratio 80; CT-26 inoculated mice; HVJ-E/BLM 3 dosing where given
# Protocol: To determine whether or not the antitumor immunity effect observed in the previous study was due to the induction of CT26 cell-specific antitumor immunity, splenocytes recovered from animals were stimulated with CT26 cells, and a CTL assay using radiolabeled chromium was performed to determine whether or not CT26-specific antitumor immunity had been induced.
# In this study, (1) a CT-26 cell non-inoculation group, (2) a CT-26 cell-alone inoculation group, (3) a CT-26 cell inoculation+CDDP administration group, and (4) a CT-26 cell inoculation+CDDP+HVJ-E/BLM 3 dosing group were established and tested.
# The spleen was extirpated from each anesthetized animal and recovered in a Petri dish (6 cm in diameter) containing 3 ml of RPMI solution. The spleen tissue was squashed between the frosted portions of two sterile glass slides, splenocytes were separated from the coat to the maximum possible extent, and the debris was removed through meshes. After 7 ml of PRMI solution was added, the cells were centrifuged at 1200 rpm for 10 minutes, and the supernatant was removed. […] The cells obtained from this operation were counted. […]
# Actual CTL assay was performed with the ratio of effector cells (E) and target cells (T), E/T ratio, set at 80, […] 40, 20, 10, and 5. In this operation, 100 μl of target cells (1×10^5 cells/ml) were added to make a total quantity of 200 μl. […]
# CT-26 tumor tissue = test: HE and CD-4/CD-8 immunohistological staining of tumor tissue; format: in vivo, mouse; conditions: 9 days after CDDP administration; single dosing
# Excerpt: (Study 5) To evaluate the infiltration of CD-4, CD-8, neutrophils, macrophage and the like in the tumor tissues examined in the study of the antitumor effect of the antitumor immunity, the following test groups were established, and tumor tissues were extirpated 9 days after administration of CDDP and subjected to immunohistological staining.
# 2-9) The tumor tissue was frozen in liquid nitrogen in preparation for staining the tumor tissue. The tumor tissue was cut into sections 8 μm in thickness using a cryostat. The tissue sections were fixed in −20° C. cold acetone for 15 minutes. After the sections were washed with water, endogenous avidin-biotin blocking was performed, and the sections were washed with water. The sample was reacted with normal rabbit serum and 50-fold diluted primary antibody [anti-mouse CD8a rat antibody (Ly-Z; Pharmingen) or anti-mouse CD4a rat antibody (L3T4; Pharmingen)] at 4° C. overnight. After the sample was washed with 7.5 mM Tris buffer solution (pH 7.5), it was reacted with 300-fold diluted anti-rat biotin-labeled rabbit Ig (DAKO) for 30 minutes. After the sample was washed with 9.5 mM Tris buffer solution (pH 7.5), it was reacted with 100-fold diluted streptoavidin for 30 minutes. After the sample was washed with 11.5 mM Tris buffer solution (pH 7.5), a color was developed with Fast Red. […]
# [5] = test system: CT-26 mouse colon cancer cells; test: Antitumor effect of cisplatin (CDDP) and HVJ-E in combination, CT-26 tumors; format: in vivo; conditions: HVJ-E alone, CDDP 1 mg/kg, physiological saline
# Protocol: CT-26 mouse colon cancer cells were intradermally inoculated into the backs of BALB/c mice at 5×10^6 cells/head. Five days after the inoculation, treatment with HVJ-E and CDDP was started in the following animal groups. For each animal group, tumor volume was calculated as major diameter×minor diameter×minor diameter/2.
# • #1: Physiological saline group • #2: HVJ-E alone • #3: CDDP 1 mg/kg • #4: CDDP 3 mg/kg • #5: CDDP 1 mg/kg+HVJ-E (5,000 HAU) • #6: CDDP 3 mg/kg+HVJ-E (5,000 HAU) • (n=5 or 6 for each group) (Results)
compound,measurement,setting,value
"COc1cccc2c1C(=O)c1c(O)c3c(c(O)c1C2=O)C[C@@](O)(C(=O)CO)C[C@@H]3O[C@H]1C[C@H](N)[C@H](O)[C@H](C)O1 [ADM, adriamycin]",tumor suppressing effect,MB49 cells [1]; ADM alone (20 or 100 μg),a tumor suppressing effect was observed
same,tumor eradication,"MB49 cells [1]; ADM alone (20 or 100 μg), tumor diameter 7-8 mm",eradication was not observed
same,tumor volume,"MB49 cells [1]; G2: ADM 20 μg x3 into tumor, Day 0",128.4 mm^3
same,tumor volume,"MB49 cells [1]; G2: ADM 20 μg x3 into tumor, Day 5",303.2 mm^3
same,tumor volume,"MB49 cells [1]; G2: ADM 20 μg x3 into tumor, Day 7",330 mm^3
same,tumor volume,"MB49 cells [1]; G2: ADM 20 μg x3 into tumor, Day 9",324.9 mm^3
same,tumor volume,"MB49 cells [1]; G2: ADM 20 μg x3 into tumor, Day 12",331.74 mm^3
same,tumor volume,"MB49 cells [1]; G2: ADM 20 μg x3 into tumor, Day 15",443.36 mm^3
same,tumor volume,"MB49 cells [1]; G2: ADM 20 μg x3 into tumor, Day 19",773.88 mm^3
same,tumor volume,"MB49 cells [1]; G2: ADM 20 μg x3 into tumor, Day 21",1022.48 mm^3
same,tumor volume,"MB49 cells [1]; G3: ADM 100 μg x3 into tumor, Day 0",119 mm^3
same,tumor volume,"MB49 cells [1]; G3: ADM 100 μg x3 into tumor, Day 5",285.8 mm^3
same,tumor volume,"MB49 cells [1]; G3: ADM 100 μg x3 into tumor, Day 7",291.2 mm^3
same,tumor volume,"MB49 cells [1]; G3: ADM 100 μg x3 into tumor, Day 9",333.9 mm^3
same,tumor volume,"MB49 cells [1]; G3: ADM 100 μg x3 into tumor, Day 12",426.88 mm^3
same,tumor volume,"MB49 cells [1]; G3: ADM 100 μg x3 into tumor, Day 15",450.76 mm^3
same,tumor volume,"MB49 cells [1]; G3: ADM 100 μg x3 into tumor, Day 19",989.52 mm^3
same,tumor volume,"MB49 cells [1]; G3: ADM 100 μg x3 into tumor, Day 21",1220.44 mm^3
same,survival rate,[2]; ADM 0.004 μg/ml,60.1%
same,survival rate,[2]; ADM 0.008 μg/ml,54%
same,survival rate,[2]; ADM 0.063 μg/ml,34.9%
same,survival rate,[2]; ADM 0.125 μg/ml,27.6%
same,survival rate,[2]; ADM 0.25 μg/ml,22.6%
same,survival rate,[2]; ADM 0.5 μg/ml,17.2%
same,survival rate,[2]; ADM 1 μg/ml,11.7%
same,survival rate,[2]; ADM 2 μg/ml,6.7%
same,LD50 concentration,"[2]; MB49 cells, WST-8",0.008 µg/mL
same,LD90 concentration,"[2]; MB49 cells, WST-8",1 µg/mL
same,infiltration of MB49 cells into the bladder,"MB49 cells [3]; ADM 0.008 μg/ml, with or without HVJ-E 5000 HAU (Groups 1, 2)",all animals showed evidence of infiltration of MB49 cells
same,animals in which infiltration of MB49 cells could not be prevented,MB49 cells [3]; Group 3: ADM 1 μg/ml,80%
"[NH2][Pt]([NH2])([Cl])[Cl] [CDDP, cisplatin]",mean tumor volume,[4],387 mm^3
same,mean tumor volume relative to control group as 100%,[4],23.2%
same,% specific Cr release,CT-26 cells,12.9%
same,pathological findings in tumor tissue (HE staining),CT-26 tumor tissue,tumor cell necrotic signs were observed over a wide range of the tumor tissue
same,order of regression effect,[5]; cell-derived HVJ-E study,"greater in the order of the physiological saline group, HVJ-E-alone administration group, and CDDP 1 mg/kg administration group"
same,tumor volume compared among groups,[5]; egg-derived HVJ-E study,no major difference was observed
bleomycin hydrochloride [BLM],mean tumor volume,[4],1303 mm^3
same,mean tumor volume relative to control group as 100%,[4],80.0%
same,pathological findings in tumor tissue (HE staining),CT-26 tumor tissue,Generally similar findings
